Experimental data taken from patent US20060281807A1, “Quassinoid compositions for the treatment of cancer and other proliferative diseases” (Tapestry Pharmaceuticals, Inc., priority 2005, published 2006).
Where “and” joins values, the source holds several entries; their conditions need not be identical. Identical values can stand only once.

Legend:
[1] = system: Colon 38 (murine colon adenocarcinoma); test: Disk diffusion assay, zone of inhibition, Colon 38; zone differentials, potency and product; assay type: cell-based; set-up: key to C38ΔL1210 / C38ΔCFU: difference of zone of inhibition values, in zone units; settings: for zone of inhibition, Colon 38: 1 mg/mL; for Sum: C38ΔL1210 plus C38ΔCFU; for C38ΔL1210: Colon38 vs L1210 leukemia
Procedure, shortened: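 Dissociated Colon 38 cells were plated in soft agar over a hard agar layer; 15 µl of compound dilution dried on a 6.5 mm disk was placed on the plate, and incubation ran 7–10 days. Inhibition zone was measured from disk edge to normal colonies, with the disk diameter = 200 units. Potency = dilution giving 500 units; the product multiplies it by the differentials against L1210 or CFU-GM.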

[2] = system: H125 (human lung carcinoma); test: Disk diffusion assay, zone of inhibition, H125; assay type: cell-based; settings: 1 mg/mL
murine CFU-GM = test: Disk diffusion assay, zone of inhibition, murine CFU-GM; assay type: cell-based; settings: 1 mg/mL
[3] = Maximum tolerated dose in mice; settings: for MTD / MTD at 30 days: mouse, in vivo, iv
Method: Formulations containing 15-O-(3′-hydroxy-3′-isopropyl-4′-methylpentanoyl)bruceolide, 15-(3-isopropyl-4-methyl-2-pentenoyl)-bruceolide, and, for comparative purposes, bruceantin, or peninsularinone were prepared by solubilizing each compound in up to 100 mg/mL of ethanol. These solutions were diluted 1:1 with a stabilizer (Cremophor/propylene glycol). The solutions were then diluted in saline (1:10 minimum).
The maximum tolerated dose (MTD) was determined by a two-stage experiment. In the first stage, between 1 and 10 mg/mL of the formulation was prepared as described above. Next, 0.25 mL of the formulation was injected intravenously into one 20 gram mouse (0.75 mg/mouse). If the animal died within 30 days of injection, a series of subsequent 2-fold dilutions were administered to individual mice until an MTD was defined. […] The second stage of the study involved increasing the number of mice per dose to four, and retesting four dilutions that bracket the MTD from the individual mouse study. The four dilutions were the MTD, a dosage twice the MTD, a dosage ½ the MTD, and a dosage ¼ the MTD.

[4] = no dilution, 15 μl on disk, 6.5 mm = 200 units
[5] = difference between zone of inhibition values
[6] = intravenous, first stage, one mouse per dose
[7] = intravenous, second stage, four mice per dose
[8] = maximum tolerated dose, Dose - 1 Mouse, first stage, one mouse per dose
[9] = maximum tolerated dose, Dose - 4 Mice, second stage, four mice per dose

SMILES	zone of inhibition, Colon 38 ([1]; dilution 1/10) [units]	zone of inhibition, Colon 38 ([1]; dilution 1/100)	zone of inhibition, Colon 38 ([1]; dilution 1/1000)	zone of inhibition, Colon 38 [1, 4] [units]	Sum [1]	C38ΔL1210 [1, 5]	zone of inhibition, H-125 M ([2]; dilution 1/1000) [units]	zone of inhibition, H-125 M [2, 4] [units]	zone of inhibition, murine CFU-GM (murine CFU-GM; dilution 1/10) [units]	zone of inhibition, murine CFU-GM (murine CFU-GM; dilution 1/100)	zone of inhibition, murine CFU-GM (murine CFU-GM; dilution 1/1000) [units]	maximum tolerated dose, Dose - 1 Mouse [3, 6] [mg/mouse]	maximum tolerated dose, Dose - 4 Mice [3, 7] [mg/mouse]	other results
COC(=O)[C@@]12OC[C@@]34C1[C@@H](OC(=O)CC(O)(C(C)C)C(C)C)C(=O)O[C@@H]3C[C@H]1C(C)=C(O)C(=O)C[C@]1(C)[C@H]4[C@@H](O)[C@@H]2O (stereo partly drawn) [15-O-(3′-hydroxy-3′-isopropyl-4′-methylpentanoyl)bruceolide]	>1000	750 units and 600 units and 500 units	400 units and 250 units	>1000	750 and 1450	400 and 550	0	>1000	50	300 units and 200 units	0	3.2	1.5	zone of inhibition, Colon 38 ([1]; dilution 1/400): 300 units; zone of inhibition, murine CFU-GM (murine CFU-GM; dilution 1/400): 100 units; mice survived the duration of the experiment ([3]; dose of either 1.5 or 0.75 mg/mouse, intravenous (FIG. 6)): 100%; MTD ([3]; MTD, mice): 60 to 65 mg/kg/day; MTD [3, 8]: 109 mg/kg; MTD [3, 9]: 60 mg/kg
COC(=O)[C@@]12OC[C@@]34C1[C@@H](OC(=O)C=C(C(C)C)C(C)C)C(=O)O[C@@H]3C[C@H]1C(C)=C(O)C(=O)C[C@]1(C)[C@H]4[C@@H](O)[C@@H]2O (stereo partly drawn) [15-O-(3′-isopropyl-4′-methyl-2′-pentenoyl)-bruceolide]	>1000	850 units and 650 units	450 units	>1000	750	300	100	>1000	650	350 units and 600 units	0	0.05	0.25	C38ΔCFU ([1]; difference between zone of inhibition values, Colon38 vs normal cell CFU-GM): 450; Product ([1]; potency multiplied by zone differentials): 4500; zone of inhibition, H-125 M ([2]; dilution 1/10): 1100 units; zone of inhibition, H-125 M ([2]; dilution 1/100): 500 units; mice survived the duration of the experiment ([3]; dose of 0.1, 0.075, 0.05, or 0.025 mg/mouse, intravenous): 100%; MTD at 30 days [3, 8]: 2.9 mg/kg; MTD at 30 days [3, 9]: 4 mg/kg
